# Data reported in patent publication US20240398818A1, “Cardiosafe Antidiabetic Therapy” (priority 2018, published 2024).
# Test system: adult patients with type 2 diabetes mellitus and with increased or high or very high CV risk evidenced by a history of established macrovascular or renal …
# Assay: Cardiovascular (Safety) and Renal Microvascular Outcome Trial (linagliptin versus placebo)
# Format: in vivo
# Conditions: for All-cause mortality, Hazard Ratio: linagliptin vs placebo
# Protocol: The effect of linagliptin on cardiovascular risk in adult patients with type 2 diabetes mellitus and with increased or high or very high CV risk evidenced by a history of established macrovascular or renal disease was evaluated in a Cardiovascular and Renal Microvascular Outcome Trial, a multi-center, multi-national, randomized, double-blind parallel group trial. The trial compared the risk of experiencing a major adverse cardiovascular event (MACE) between linagliptin and placebo when these were added to and used concomitantly with standard of care treatments for diabetes and other cardiovascular risk factors. The trial was event driven and patients were followed until at least 611 primary outcome events accrued.
# A total of 6979 patients were treated (linagliptin 5 mg=3494; placebo=3485) and followed for a median of 2.2 years (median time on treatment 1.9 years). Approximately 80% of the study population was Caucasian, 9% was Asian, and 6% was Black. The mean age was 66 years and 63% were male.
# The trial population included 1211 (17.4%) patients ≥75 years of age and 4348 (62.3%) patients with renal impairment. Approximately 19% of the population had eGFR ≥45 to <60 mL/min/1.73 m2, 28% of the population had eGFR ≥30 to <45 mL/min/1.73 m2 and 15% had eGFR <30 mL/min/1.73 m2. Overall, the use of diabetes medications was balanced across treatment groups (metformin 54%, sulfonylurea 32%, and insulin 57%). The use of medications to reduce cardiovascular risk was also balanced (aspirin 62%, statins 72%, ACE inhibitors or ARBs 81%, beta blockers 60%, and calcium channel blockers 41%).
# The primary endpoint in the Cardiovascular and Renal Microvascular Outcome Trial was the time to first occurrence of three point (3P) MACE. A major adverse cardiac event was defined as a cardiovascular death or a nonfatal myocardial infarction (MI) or a nonfatal stroke. The statistical analysis plan tested for non-inferiority for the occurrence of (3P) MACE. The secondary endpoint was a renal composite, defined as renal death or sustained end stage renal disease or sustained decrease of 40% or more in eGFR.
# The microvascular endpoint was defined as the composite of renal death, sustained ESRD, sustained decrease of ≥50% in eGFR, albuminuria progression, use of retinal photocoagulation or intravitreal injections of an anti-VEGF therapy for diabetic retinopathy or vitreous hemorrhage or diabetes-related-blindness. The estimated hazard ratio for time to first occurrence for the composite microvascular endpoint was 0.86 (95% CI 0.78, 0.95) for linagliptin versus placebo; mainly driven by albuminuria progression.
# People with type 2 diabetes (T2D) with concomitant chronic kidney disease (CKD) and cardiovascular (CV) disease are at increased risk for recurrent CV events and hypoglycemia. Treatment of these individuals is clinically challenging, where the evidence-base for safety and efficacy of glucose lowering drugs is scarce, in particular in GFR categories G3b (eGFR 30-44 ml/min/1.73 m2), G4 (eGFR <30) and G5 (eGFR <15). We analyzed baseline characteristics and effects on CV and kidney outcomes with the DPP-4 inhibitor linagliptin (LINA) vs. placebo (PBO), across GFR categories in the Cardiovascular and Renal Microvascular Outcome Trial. People with T2D and either i) UACR >30 mg/g with concomitant CV disease, or ii) eGFR <45 ml/min/1.73 m^2 regardless of UACR, or eGFR ≥45-75 mL/min/1.73 m^2 and UACR >200 mg/g, were randomized to LINA 5 mg or placebo (PBO) q.d. in a double-blind fashion. The primary outcome was first occurrence of CV death, non-fatal myocardial infarction, or non-fatal stroke (3P-MACE), with an adjudicated secondary composite outcome of ESKD, renal death, or sustained ≥40% decrease in eGFR from baseline. Other adjudicated outcomes included hospitalized heart failure (hHF) and the 3P-MACE components. Subgroup-effects across GFR categories (G≤2, G3a, G3b and G≥4) were also assessed. […]
# [1] = LINA vs PBO, across all GFR categories
# [2] = linagliptin relative to placebo, listed as linagliptin
structure (smiles),measurement,setting,value
"CC#CCn1c(N2CCC[C@@H](N)C2)nc2c1c(=O)n(Cc1nc(C)c3ccccc3n1)c(=O)n2C [Linagliptin, 1-[(4-methyl-quinazolin-2-yl)methyl]-3-methyl-7-(2-butyn-1-yl)-8-(3-(R)-amino-piperidin-1-yl)-xanthine]",HbA1c (in words),[1],reduced significantly
same,risk for hypoglycemia (in words),[1],without increased risk
same,"Progression of albuminuria category, patients with event / patients analysed",in vivo,763/2162
same,risk of HHF regardless of baseline renal function (in words),in vivo,did not affect
same,"Hospitalization for heart failure, Hazard Ratio",linagliptin relative to placebo,0.90
same,"Secondary renal composite, Hazard Ratio","linagliptin relative to placebo, listed as LINA",1.04
same,"3P-MACE, Hazard Ratio","linagliptin relative to placebo, listed as TRADJENTA",1.02
same,"3P-MACE, Hazard Ratio",[2],1.02
same,"Secondary renal composite, Hazard Ratio",[2],1.04
same,"albuminuria progression (normo- to micro-/macroalbuminuria, or micro- to macroalbuminuria), hazard ratio",linagliptin versus placebo,0.86
same,"composite microvascular endpoint, time to first occurrence, hazard ratio","linagliptin versus placebo, mainly driven by albuminuria progression",0.86
same,"All-cause mortality, Hazard Ratio",,0.98
same,"All-cause mortality, Hazard Ratio",listed as TRADJENTA,0.98
same,"All-cause mortality, Hazard Ratio",listed as linagliptin,0.98
same,"3P-MACE, Incidence Rate per 1000 PY",median follow-up 2.2 years,57.7 per 1000 PY
same,"3P-MACE, Subjects (%)",median follow-up 2.2 years,(12.4) %
same,"All-cause mortality, Incidence Rate per 1000 PY",median follow-up 2.2 years,46.9 per 1000 PY
same,"All-cause mortality, Subjects (%)",median follow-up 2.2 years,(10.5) %
same,"Hospitalization for heart failure, Incidence Rate per 1000 PY",median follow-up 2.2 years,27.7 per 1000 PY
same,"Hospitalization for heart failure, Number of Subjects",median follow-up 2.2 years,209
same,"Hospitalization for heart failure, Subjects (%)",median follow-up 2.2 years,(6.0) %
same,"Secondary renal composite (renal death, ESRD, 40% sustained decrease in eGFR), Number of Subjects",median follow-up 2.2 years,327
same,"Secondary renal composite, Incidence Rate per 1000 PY",median follow-up 2.2 years,48.9 per 1000 PY
same,"Composite of first event of CV death, non-fatal MI, or non-fatal stroke (3P-MACE), Number of Subjects","median follow-up 2.2 years, added to standard of care",434
same,"All-cause mortality, Subjects (%)","median follow-up 2.2 years, listed as TRADJENTA",(10.5%)
same,"Hospitalization for heart failure, Subjects (%)","median follow-up 2.2 years, listed as linagliptin",6.0%
